Test results taken from patent US7462613B2, “Pyridazinone derivatives as pharmaceuticals and pharmaceutical compositions containing them” (SANOFI-AVENTIS Deutschland GmbH, priority 2002, dated 2008).

Target: CDK2/Cyclin E kinase (Homo sapiens, UniProt P24941)
Experiment: CDK2/Cyclin E Flashplate Assay: 96-Well Format
Format: biochemical
Conditions: streptavidin-coated flashplate; biotinylated-Rb peptide substrate 10 μM; 33P-ATP/ATP 1 μM; CDK2/Cyclin E 20 nM; 30 minutes at 30° C.; 1% DMSO
Protocol: Functional Measurements for Determination of IC50-Values
CDK2/Cyclin E Flashplate Assay: 96-Well Format
A 96-well streptavidin-coated flashplate was used to assay potency of compounds according formula (I) against CDK2/Cyclin E kinase. To carry out the assay, biotinylated-Rb peptide substrate (Biotin-[…]-OH) was solubilized at 1 mM in kinase buffer (Hepes 50 mM, NaCl 1 mM, MgCl2 5 mM pH 7.5) as a stock solution conserved at −20° C. in aliquots of 110 μl. The day of the experiment, an aliquot of this solution was thawed and diluted to 14.3 μM in kinase buffer, containing 1 mM dithiothreitol (DTT) added in the buffer at the same time.
70 μl of this solution was added in each well of the flashplate in order to achieve a final concentration of 10 μM (100 μl reactionnal volume). Serial dilutions of inhibitors were prepared in DMSO from 10 mM stock solutions in order to achieve 1000 μM, 333.3 μM, 111.1 μM, 37.03 μM, 12.35 μM, 4.11 μM and 1.37 μM and all were rediluted in kinase buffer+DTT in order to achieve 100 μM, 33.3 μM, 11.1 μM, 3.7 μM, 1.24 μM, 0.41 μM and 0.14 μM in DMSO 10% buffer (vol/vol). 10 μl of each, of these solutions (or 10 μl of buffer+DTT for controls) were transferred to the testplate wells in order to achieve 10 μM, 3.33 μM, 1.11 μM, 0.37 μM, 0.12 μM, 0.04. μM and 0.01 μM as final concentrations, 1% DMSO (vol/vol). In each well, 10 μl of a solution of a mix of ^33PyATP/ATP were added in order to achieve 1 μM final concentration and a total of 1 μCi. The kinase reaction was initiated by addition of 10 μl of a solution at 200 nM of CDK2/Cyclin E in kinase buffer+DTT (or buffer+DTT for blanks) in order to achieve 20 nM final concentration. After addition of each reagent, the test-plate was shakened. The plates were incubated 30 minutes at 30° C. with a shaking at 650 rpm. At the end of the incubation, the plates were washed 3 times with 300 μl of PBS (without calcium and magnesium) per well. The incorporation of ^33P to the peptide was measured by scintillation counting.

Compound | IC50 [nM]
O=C(NCc1ccc(Cl)cc1Cl)c1cc(-c2ccncc2)n[nH]c1=O [Example 2, N-(2,4-dichlorobenzyl)-3-oxo-6-pyridin-4-yl-2,3-dihydropyridazine-4-carboxamide] | 905
O=C(NCc1ccc(Cl)cc1)c1cc(-c2ccncc2)n[nH]c1=O [Example 4, N-(4-chlorobenzyl)-3-oxo-6-pyridin-4-yl-2,3-dihydropyridazine-4-carboxamide-6] | 577
CCOC(=O)CCNC(=O)c1cc(-c2ccncc2)n[nH]c1=O [Example 13, Ethyl 3-[(3-oxo-6-pyridin-4-yl-2,3-dihydropyridazine-4-carbonyl)amino]propionate] | 764
O=C(NCc1ccc(Cl)c(Cl)c1)c1cc(-c2ccncc2)n[nH]c1=O [Example 16, N-(3,4-dichlorobenzyl)-3-oxo-6-pyridin-4-yl-2,3-dihydropyridazine-4-carboxamide] | 174
O=C(NCc1ccc(O)cc1)c1cc(-c2ccncc2)n[nH]c1=O [Example 18, N-(4-hydroxybenzyl)-3-oxo-6-pyridin-4-yl-2,3-dihydropyridazine-4-arboxamide] | 536
O=C(NCCCCO)c1cc(-c2ccncc2)n[nH]c1=O [Example 31, 3-Oxo-6-pyridin-4-yl-2,3-dihydro-pyridazine-4-carboxylic acid (4-hydroxy-butyl)-amide] | 581
CNc1nccc(-c2cc(C(=O)NCc3ccc(Cl)cc3)c(=O)[nH]n2)n1 [Example 34, 6-(2-Methylamino-pyrimidin-4-yl)-3-oxo-2,3-dihydro-pyridazine-4-carboxylic acid 4-chloro-benzylamide] | 30
O=C(NCc1ccc(Cl)cc1)c1cc(-c2cn[nH]c2)n[nH]c1=O [Example 39, 3-Oxo-6-(1H-pyrazol-4-yl)-2,3-dihydro-pyridazine-4-carboxylic acid 4-chloro-benzylamide] | 344
O=C(NCc1ccc(Cl)cc1)c1cc(-c2ccc(O)cc2)n[nH]c1=O [Example 40, 6-(4-Hydroxy-phenyl)-3-oxo-2,3-dihydro-pyridazine-4-carboxylicacid 4-chloro-benzylamide] | 119
COc1cc(-c2cc(C(=O)NCc3ccc(Cl)cc3)c(=O)[nH]n2)ccc1O [Example 41, 6-(4-Hydroxy-3-methoxy-phenyl)-3-oxo-2,3-dihydro-pyridazine-4-carboxylic acid 4-chloro-benzylamide] | 147
COc1cc(-c2cc(C(=O)NCCCc3cccnc3)c(=O)[nH]n2)ccc1O [Example 49, 6-(4-Hydroxy-3-methoxy-phenyl)-3-oxo-2,3-dihydro-pyridazine-4-carboxylic acid (3-pyridin-3-yl-propyl)-amide] | 175
O=C(NCCCc1ccccc1)c1cc(-c2ccncc2)n[nH]c1=O [Example 66, 3-Oxo-6-pyridin-4-yl-2,3-dihydro-pyridazine-4-carboxylic acid (3-phenyl-propyl)-amide; compoundwith trifluoro-acetic acid] | 521
O=C(NCc1ccc(Br)cc1)c1cc(-c2ccncc2)n[nH]c1=O [Example 75, 3-Oxo-6-pyridin-4-yl-2,3-dihydro-pyridazine-4-carboxylic acid 4-bromo-benzylamide; compoundwith trifluoro-acetic acid] | 802
COc1ccc(CNC(=O)c2cc(-c3ccncc3)n[nH]c2=O)cc1 [Example 83, 3-Oxo-6-pyridin-4-yl-2,3-dihydro-pyridazine-4-carboxylic acid 4-methoxy-benzylamide;compound with trifluoro-acetic acid] | 552

Continued, values first:

IC50 [nM] | Compound
219 | O=C(NCc1ccc2c(c1)OCO2)c1cc(-c2ccncc2)n[nH]c1=O [Example 84, 3-Oxo-6-pyridin-4-yl-2,3-dihydro-pyridazine-4-carboxylic acid(benzo[1,3]dioxol-5-ylmethyl)-amide;compound with trifluoro-acetic acid]
349 | O=C(NCc1ccc(F)c(Br)c1)c1cc(-c2ccncc2)n[nH]c1=O [Example 93, 3-Oxo-6-pyridin-4-yl-2,3-dihydro-pyridazine-4-carboxylic acid 3-bromo-4-fluoro-benzylamide;compound with trifluoro-acetic acid]
664 | CS(=O)(=O)c1ccc(CNC(=O)c2cc(-c3ccncc3)n[nH]c2=O)cc1 [Example 98, 3-Oxo-6-pyridin-4-yl-2,3-dihydro-pyridazine-4-carboxylic acid 4-methanesulfonyl-benzylamide; compoundwith trifluoro-acetic acid]
164 | O=C(NCCc1ccccc1Cl)c1cc(-c2ccncc2)n[nH]c1=O [Example 103, 3-Oxo-6-pyridin-4-yl-2,3-dihydro-pyridazine-4-carboxylic acid [2-(2-chloro-phenyl)-ethyl]-amide; compound withtrifluoro-acetic acid]
360 | O=C(NCc1ccc(C(F)(F)F)cc1)c1cc(-c2ccncc2)n[nH]c1=O [Example 112, 3-Oxo-6-pyridin-4-yl-2,3-dihydro-pyridazine-4-carboxylic acid 4-trifluoromethyl-benzylamide; compoundwith trifluoro-acetic acid]
787 | O=C(NCc1ccc(Cl)cc1F)c1cc(-c2ccncc2)n[nH]c1=O [Example 116, 3-Oxo-6-pyridin-4-yl-2,3-dihydro-pyridazine-4-carboxylic acid 4-chloro-2-fluoro-benzylamide;compound with trifluoro-acetic acid]
519 | O=C(NCc1ccc(F)cc1)c1cc(-c2ccncc2)n[nH]c1=O [Example 125, 3-Oxo-6-pyridin-4-yl-2,3-dihydro-pyridazine-4-carboxylic acid 4-fluoro-benzylamide; compoundwith trifluoro-acetic acid]
353 | Cc1ccc(CNC(=O)c2cc(-c3ccncc3)n[nH]c2=O)s1 [Example 139, 3-Oxo-6-pyridin-4-yl-2,3-dihydro-pyridazine-4-carboxylic acid (5-methyl-thiophen-2-ylmethyl)-amide; compound withtrifluoro-acetic acid]
356 | O=C(NCc1ccc(Cl)s1)c1cc(-c2ccncc2)n[nH]c1=O [Example 142, 3-Oxo-6-pyridin-4-yl-2,3-dihydro-pyridazine-4-carboxylic acid (5-chloro-thiophen-2-ylmethyl)-amide; compound withtrifluoro-acetic acid]
133 | O=C(NCCCc1cccnc1)c1cc(-c2ccc(O)cc2)n[nH]c1=O [Example 164, 6-(4-Hydroxy-phenyl)-3-oxo-2,3-dihydro-pyridazine-4-carboxylicacid (3-pyridin-3-yl-propyl)-amide]
125 | C[C@@H](Nc1nccc(-c2cc(C(=O)NCCCc3cccnc3)c(=O)[nH]n2)n1)c1ccccc1 [Example 167, R-3-Oxo-6-[2-(1-phenyl-ethylamino)-pyrimidin-4-yl]-2,3-dihydro-pyridazine-4-carboxylic acid (3-pyridin-3-yl-propyl)-amide]
27 | O=C(NCc1ccc(Cl)cc1)c1cc(-c2ccnc(NCCN3CCOCC3)n2)n[nH]c1=O [Example 175, 6-[2-(2-Morpholin-4-yl-ethylamino)-pyrimidin-4-yl]-3-oxo-2,3-dihydro-pyridazine-4-carboxylicacid 4-chloro-benzylamide; compoundwith trifluoro-acetic acid]
173 | O=C(NCc1ccc(Cl)cc1)c1cc(-c2ccc(O)c(Cl)c2)n[nH]c1=O [Example 180, 6-(3-Chloro-4-hydroxy-phenyl)-3-oxo-2,3-dihydro-pyridazine-4-carboxylic acid 4-chloro-benzylamide]
464 | O=C(NCc1ccc(Cl)cc1)c1cc(-c2cc(F)c(O)c(F)c2)n[nH]c1=O [Example 182, 6-(3,5-Difluoro-4-hydroxy-phenyl)-3-oxo-2,3-dihydro-pyridazine-4-carboxylic acid 4-chloro-benzylamide]
102 | O=C(NCc1ccc(Cl)cc1)c1cc(-c2ccc(O)c(F)c2)n[nH]c1=O [Example 183, 6-(3-Fluoro-4-hydroxy-phenyl)-3-oxo-2,3-dihydro-pyridazine-4-carboxylic acid 4-chloro-benzylamide]
18 | CCNc1nccc(-c2cc(C(=O)NCc3ccc(Cl)cc3)c(=O)[nH]n2)n1 [Example 190, 6-(2-Ethylamino-pyrimidin-4-yl)-3-oxo-2,3-dihydro-pyridazine-4-carboxylic acid 4-chloro-benzylamide]
